Experimental data from ChEMBL document CHEMBL6115028, “An Amazing 30-Year Journey around the DABO Family: A Medicinal Chemistry Lesson on a Versatile Class of Non-nucleoside HIV-1 Reverse Transcriptase Inhibitors” (J Med Chem, 2025).

Legend:
[1] = test system: MT4; experiment: Cytotoxicity against human MT4 cells; assay type: functional
[2] = test system: Human immunodeficiency virus 1; experiment: Antiviral activity against wild type HIV-1 IIIB infected in human MT4 cells assessed as protection against virus-induced cytopathic effect incubated for 72 hrs by MTT assay; assay type: functional, organism-based; settings: Human immunodeficiency virus 1, IIIB, MT4, 72 h
[3] = test system: Human immunodeficiency virus 1; experiment: Antiviral activity against HIV-1 infected in human MT4 cells assessed as reduction in virus-induced cytopathic effect incubated for 5 days by Cell Titer-Glo luminescent assay; assay type: functional, organism-based; settings: Human immunodeficiency virus 1, MT4, 120 h
[4] = test system: MT4; experiment: Cytotoxicity against human MT4 cells assessed as reduction in cell viability after 5 days by MTT assay; assay type: functional; settings: MT4, 120 h, time 5 day
[5] = Selectivity index, ratio of CC50 for human MT4 cells to EC50 for antiviral activity against HIV1 infected in human MT4 cells; assay type: toxicity, cell-based; settings: read-out: Ratio CC50/EC50
[6] = biological target: T1, Human immunodeficiency virus type 1 reverse transcriptase (Human immunodeficiency virus 1, UniProt Q72547); experiment: Inhibition of recombinant HIV-1 reverse transcriptase associated RNA-dependent DNA polymerase activity incubated for 30 mins by liquid scintillation method
[7] = test system: MT4; experiment: Cytotoxicity against human MT4 cells assessed as reduction in cell viability incubated for 4 days by MTT assay; assay type: functional; settings: MT4, 96 h, time 4 day
[8] = test system: Human immunodeficiency virus 1; experiment: Antiviral activity against wild type HIV-1 IIIB harboring Y181C/K103N double mutant infected in human MT4 cells assessed as reduction in cytopathic effect measured after 4 days by MTT assay; assay type: functional, organism-based; settings: Human immunodeficiency virus 1, IIIB, MT4, 96 h
[9] = test system: Human immunodeficiency virus 1; experiment: Antiviral activity against wild type HIV-1 IIIB infected in human MT4 cells assessed as reduction in cytopathic effect measured after 4 days by MTT assay; assay type: functional, organism-based; settings: Human immunodeficiency virus 1, IIIB, MT4, 96 h
[10] = test system: Human immunodeficiency virus 1; experiment: Antiviral activity against […] infected in human MT4 cells assessed as reduction in cytopathic effect measured after 4 days by MTT assay; assay type: functional, organism-based; settings: Human immunodeficiency virus 1, IIIB, MT4, 96 h
[11] = test system: Human immunodeficiency virus 1; experiment: Antiviral activity against HIV-1 NL4-3 harboring infected Y181C mutant infected in human MT4 cells assessed as reduction in viral replication; assay type: functional, organism-based; settings: Human immunodeficiency virus 1, NL4-3, MT4
[12] = test system: Human immunodeficiency virus 1; experiment: Antiviral activity against HIV-1 NL4-3 harboring infected K103N mutant infected in human MT4 cells assessed as reduction in viral replication; assay type: functional, organism-based; settings: Human immunodeficiency virus 1, NL4-3, MT4
[13] = test system: Human immunodeficiency virus 1; experiment: Antiviral activity against HIV-1 NL4-3 harboring infected Y188L mutant infected in human MT4 cells assessed as reduction in viral replication; assay type: functional, organism-based; settings: Human immunodeficiency virus 1, NL4-3, MT4
[14] = test system: Human immunodeficiency virus 1; experiment: Antiviral activity against wild type HIV-1 NL4-3 infected in human MT4 cells assessed as reduction in viral replication measured for 72 hrs by ELISA analysis; assay type: functional, organism-based; settings: Human immunodeficiency virus 1, NL4-3, MT4, 72 h
[15] = test system: MT2; experiment: Cytotoxicity against human MT2 cells; assay type: functional
[16] = test system: MT4; experiment: Cytotoxicity against human MT4 cells assessed as reduction in cell growth incubated for 5 days by MTT assay; assay type: functional; settings: MT4, 120 h, time 5 day
[17] = test system: Human immunodeficiency virus 1; experiment: Antiviral activity against HIV-1 3B infected in human MT4 cells assessed as reduction in viral replication incubated for 5 days by MTT assay; assay type: functional, organism-based; settings: Human immunodeficiency virus 1, 3B, MT4, 120 h
[18] = test system: Human immunodeficiency virus 1; experiment: Antiviral activity against HIV-1 harboring RT K103N mutant infected in human MT4 cells assessed as protection against virus-induced cytopathic effect measured for 5 days by MTT assay; assay type: functional, organism-based; settings: Human immunodeficiency virus 1, MT4, 120 h
[19] = test system: Human immunodeficiency virus 1; experiment: Antiviral activity against HIV-1 infected in human MT4 cells; assay type: functional, organism-based; settings: Human immunodeficiency virus 1, MT4
[20] = biological target: T2, Reverse transcriptase (Human immunodeficiency virus 1, UniProt Q9WKE8, K103N); experiment: Inhibition of HIV-1 Reverse transcriptase K103N mutant
[21] = test system: Human immunodeficiency virus 1; experiment: Antiviral activity against wild type HIV-1 NL4-3 infected in human MT4 cells assessed as reduction in viral replication; assay type: functional, organism-based; settings: Human immunodeficiency virus 1, NL4-3, MT4; read-out: EC50
[22] = biological target: T1, Human immunodeficiency virus type 1 reverse transcriptase; experiment: Inhibition of wild type HIV-1 Reverse transcriptase
[23] = biological target: T2, Reverse transcriptase; experiment: Binding affinity to HIV-1 reverse transcriptase K103N mutant assessed as inhibition constant

Cc1cc(C)cc(Cc2nc(Sc3cccnc3)[nH]c(=O)c2C)c1
CC50 [1]: 55 µM | EC50 [2]: 1.6 µM

CCC(C)Oc1nc(Sc2ccccc2)nc(N)c1C (configuration not stated)
EC50 [3]: 8 µM | CC50 [4]: > 364 µM | selectivity ratio [5]: > 45 | IC50 [6]: 28 µM

C=C(c1nc(N(C)C)[nH]c(=O)c1C)c1c(F)cccc1F
CC50 [7]: > 100 µM | EC50 [8]: > 100 µM | EC50 [9]: 0.2 µM | EC50 [10]: 44 µM

CSc1nc(N)c(C)c(C(=O)c2ccc(F)cc2)n1
EC50 [11]: 0.21 µM | EC50 [12]: 5.95 µM | EC50 [13]: 0.21 µM | EC50 [14]: 0.58 µM

CSc1nc(C(C)C)c(CC2CCCCC2)n1COCc1ccccc1
CC50 [15]: 31 µM

Cc1c(C(Br)c2c(F)cccc2F)nc(N(C)C)[nH]c1=O (configuration not stated)
CC50 [7]: 43 µM | EC50 [8]: 43 µM | EC50 [9]: 0.2 µM | EC50 [10]: 43 µM

CCC(C)Sc1nc(Cc2cc(C)cc(C)c2)c(C)c(=O)[nH]1 (configuration not stated)
CC50 [16]: 86 µM | EC50 [17]: 0.6 µM

O=C1c2ccccc2C(=O)N1CCSc1nc(Cc2c(F)cccc2F)cc(=O)[nH]1
EC50 [18]: 100 µM | CC50 [1]: > 100 µM

Cc1c(C2(c3c(F)cccc3F)CC2)nc(SC2CCCC2)[nH]c1=O
EC50 [19]: 0.005 µM | CC50 [1]: 14 µM | selectivity ratio [5]: 2660

Cc1cc(=O)[nH]c(SCCN2C(=O)c3ccccc3C2=O)n1
EC50 [18]: 1.9 µM | CC50 [1]: 117 µM

CCc1nc(SC)n(COCc2ccccc2)c1CC1CCCCC1
CC50 [15]: 25 µM

CCC(C)Sc1nc(Cc2cc(C)cc(C)c2)c(I)c(=O)[nH]1 (configuration not stated)
CC50 [16]: 144 µM | EC50 [17]: 4.3 µM

CCC(C)Oc1nc(Cc2cc(C)cc(C)c2)c(C)c(=O)[nH]1 (configuration not stated)
EC50 [3]: 0.8 µM | CC50 [4]: > 333 µM | selectivity ratio [5]: > 416 | IC50 [6]: 2 µM

Cc1c(C(F)c2c(F)cccc2F)nc(N(C)C)[nH]c1=O (configuration not stated)
CC50 [7]: > 100 µM | EC50 [8]: > 100 µM | EC50 [9]: 0.02 µM | EC50 [10]: 2.8 µM

CCOCn1c(SC)nc(C(C)C)c1CC1CCCCC1
CC50 [15]: 39 µM

CSc1nc(C(C)C)c(Cc2ccccc2)n1COCc1ccccc1
CC50 [15]: 29 µM

COc1ccc(C2CC2CN(C)c2nc(C(C)c3c(F)cccc3F)cc(=O)[nH]2)cc1 (configuration not stated)
EC50 [11]: > 5 µM | EC50 [12]: 0.07 µM | EC50 [13]: 2.95 µM | IC50 [20]: 0.985 µM | EC50 [21]: 0.003 µM

Cc1cc(C)cc(Cc2nc(Sc3cccc4ccccc34)[nH]c(=O)c2C)c1
CC50 [1]: > 100 µM | EC50 [2]: 1.6 µM

Cc1cccc(Cc2cc(=O)[nH]c(OC3CCCCC3)n2)c1
EC50 [3]: 0.8 µM | CC50 [4]: > 335 µM | selectivity ratio [5]: > 418 | IC50 [6]: 1.8 µM

CCCSc1nc(C2(c3c(F)cccc3F)CC2)c(C)c(=O)[nH]1
EC50 [19]: 0.004 µM | CC50 [1]: 12 µM | selectivity ratio [5]: 3000

COc1ccc(Cn2cc(CSc3nc(Cc4c(Cl)cccc4Cl)c(C)c(=O)[nH]3)nn2)cc1
IC50 [22]: 4.56 µM | CC50 [1]: 29 µM

CC(c1cc(=O)[nH]c(N(C)C)n1)c1c(F)cccc1Cl (configuration not stated)
Ki [23]: 1 µM | EC50 [14]: 0.007 µM

Cc1c(C(O)c2c(F)cccc2F)nc(N(C)C)[nH]c1=O (configuration not stated)
CC50 [7]: 50 µM | EC50 [8]: > 50 µM | EC50 [9]: 1 µM | EC50 [10]: > 50 µM

Cc1c(C(=O)c2c(F)cccc2F)nc(N(C)C)[nH]c1=O
CC50 [7]: > 100 µM | EC50 [8]: > 100 µM | EC50 [9]: 0.3 µM | EC50 [10]: 94 µM
